Columns and labels:
[1] = test system: MYCN expression; test: Immunoblot of EGF-induced MYCN expression in SK-N-BE cells after siRNA introduction; format: cell-based; settings: 10 hours, 10 ng/ml EGF
Description: SK-N-BE cells, SK-N-BE cells into which siRNA against NLRR1 was introduced, and SK-N-BE cells into which Silencer (registered trademark) Negative Control #1 siRNA was introduced were cultured for 10 hours in the presence of 10 ng/ml EGF, and the cells were collected. Next, these cells were subjected to an immunoblot method using an anti-MYCN antibody, an anti-NLRR1 rabbit polyclonal antibody and an anti-actin antibody, and expression of MYCN and NLRR1 in the protein level was detected. FIG. 16 is a photograph showing a result of immunoblot. The result of the cells into which control siRNA was introduced corresponds to “mock” in FIG. 16.

[2] = test system: SK-N-BE cells; test: MTT assay, proliferation of SK-N-BE cells after siRNA introduction; format: cell-based; settings: vs negative control siRNA, day 4 and day 5 p<0.01
Description: (§1) To SK-N-BE cells derived from neuroblastoma, siRNA against NLRR1 was introduced so as to suppress the expression of NLRR1. As the siRNA, RNA fragment of the base sequences shown SEQ ID NOs: 3 and 4 were annealed and used.
(§2) After siRNA was introduced, the cells were cultured, and the cell proliferation was quantified by the MTT assay over time. As a control, cells into which Silencer (registered trademark) Negative Control #1 siRNA (Ambion) was introduced were used. FIG. 11 is a graph showing the proliferation of cells. […] FIG. 12 is a photograph of an immunoblot in which the expression of NLRR1 in the cells into which siRNA against NLRR1 was introduced and the control cells were detected by using an anti-NLRR1 rabbit polyclonal antibody. The anti-NLRR1 rabbit polyclonal antibody was prepared by immunizing a rabbit with a synthetic peptide corresponding to 693-712 residues of an amino acid sequence of NLRR1 (SEQ ID NO: 2) as an antigen. The result when an anti-actin antibody was used as the loading control is also shown.

[3] = test system: NLRR1; test: Immunoblot of NLRR1 expression after siRNA introduction; format: cell-based; settings: SK-N-BE cells, anti-NLRR1 rabbit polyclonal antibody
Description: as §1, §2

[4] = test system: SK-N-AS cell line continuously expressing NLRR1; test: Flow cytometry of sub-G1 cells (apoptosis) under serum-free conditions; format: cell-based; settings: SK-N-AS line continuously expressing NLRR1, serum-free 36 hours, PI staining
Source text: It is known that in the SK-N-AS neuroblastoma cell line, cell death is induced when serum is removed, and that the number of sub-G1 cells is increased from the flow cytometry analysis. SK-N-AS cells into which an empty vector plasmid was introduced (corresponding to “mock” on the left in FIG. 17), a cell line continuously expressing NLRR1 obtained by introducing a plasmid encoding NLRR1 into SK-N-AS cells (corresponding to “+NLRR1” in the middle of FIG. 17), and cells obtained by introducing siRNA against NLRR1 into this cell line continuously expressing NLRR1 (corresponding to “+siRNA+NLRR1” on the right of FIG. 17) were PI stained before and after the cells were cultured under the serum-free conditions for 36 hours, and analyzed by flow cytometry. The rate of the sub-G1 cells was evaluated as a rate of apoptosis. […] FIG. 18 is a graph showing the proportion of the number of sub-G1 cells to the total number of cells before and after culturing under the serum free conditions of respective cells based on the results of FIG. 17, in which the unit of the ordinate axis is %.

[5] = test system: SHEP21N cells; test: MTT assay, proliferation of SHEP21N cells forced to express MYCN; format: cell-based; settings: absence of tetracycline (expression of MYCN increased)
Source text: To SHEP21N cells that were forced to express MYCN in the absence of tetracycline, siRNA against NLRR1 was introduced, and the cell proliferation was quantified by the MTT assay over time. FIG. 15 is a graph showing the proliferation of cells. In the absence of tetracycline (expression of MYCN was increased), the proliferation of cells was promoted as compared with the case in the presence of tetracycline (expression of MYCN was suppressed). When Silencer (registered trademark) Negative Control #1 siRNA was introduced in the absence of tetracycline (expression of MYCN was increased) as a control, the proliferation rate of cells was not changed.

[6] = test system: SK-N-BE cells, NLF cells, SH-SY5Y cells, SMS-SAN cells; test: MTT assay, EGF-induced proliferation of neuroblastoma-derived cells; format: cell-based; settings: SK-N-BE cells with siRNA, 10 ng/ml EGF
Description: SK-N-BE cells, NLF cells, SH-SY5Y cells, SMS-SAN cells, which are cell lines derived from neuroblastoma, and SK-N-BE cells into which siRNA against NLRR1 was introduced were cultured in the presence and absence of 10 ng/ml EGF, and the cell proliferation was quantified by the MTT assay over time. FIG. 28 is a graph showing the cell proliferation, showing the change fold ratio of the proliferation of cells in the presence of EGF to the proliferation of cells in the absence of EGF.

[7] = test system: MYCN protein expression; test: Immunoblot of MYCN protein induced by NLRR1 expression in SK-N-BE cells; format: cell-based; settings: NLRR1 plasmid 1000 ng/ml, 12 hours, 1 μM AG1478 or 2 μM U0126
Description: An expression plasmid of NLRR1 tagged with a myc tag was introduced into SK-N-BE cells at the concentration of 1000 ng/ml. The cells were cultured for 12 hours in the presence of 1 μM of EGFR inhibitor AG1478 or 2 μM of ERK1/2 inhibitor U0126, and then the cells were collected and subjected to an immunoblot method using an anti-myc antibody, an anti-MYCN antibody and an anti-actin antibody. FIG. 34 is a photograph showing a result of an immunoblot.

[8] = test system: SK-N-BE cells; test: MTT assay, proliferation of SK-N-BE cells in the presence of EGF; format: cell-based; settings: 10 ng/ml EGF plus 5 μM inhibitor, vs EGF-only control, T-test p<0.01
Description: SK-N-BE cells were cultured in the presence of 10 ng/ml EGF (control, which corresponds to “mock” in FIG. 26), in the presence of 10 ng/ml EGF and 5 μM of EGFR inhibitor AG1478, as well as in the presence of 10 ng/ml EGF and 5 μM of Ras inhibitor FTI277, and the cell proliferation was quantified by the MTT assay over time. FIG. 26 is a graph showing the proliferation of cells.

[9] = test system: MYCN expression; test: Immunoblot of EGF-induced MYCN expression in SK-N-BE cells with pathway inhibitors; format: cell-based; settings: six hours, 10 ng/ml EGF, inhibitor concentrations shown in FIG. 27
Description: SK-N-BE cells were cultured for six hours in the presence of 10 ng/ml EGF and in the presence of an EGFR inhibitor AG1478, a Ras inhibitor FTI277, an ERK1/2 inhibitor U0126, a PI3Kinase inhibitor LY294002, a INK inhibitor SP600125 or a p38MAPK inhibitor SB203580 in each concentration shown in FIG. 27. Next, respective cells were collected, and the expression of MYCN was analyzed by an immunoblot method using an anti-MYCN antibody and an anti-actin antibody. FIG. 27 is a photograph showing a result of an immunoblot.

[10] = test system: SK-N-BE cells forced to express NLRR1; settings: SK-N-BE cells forced to express NLRR1, presence vs absence of U0126, over time
Description: SK-N-BE cells that were forced to express NLRR1 were cultured in the presence and absence of ERK1/2 (ERK1 and ERK2) inhibitor, U0126. Furthermore, as a control, SK-N-BE cells into which a plasmid encoding NLRR1 was not introduced were cultured in the absence of U0126. The proliferation of these cells was quantified by an MTT assay over time. FIG. 23 is a graph showing a proliferation of cells. In the drawing, A denotes the proliferation of SK-N-BE cells forced to express NLRR1; B denotes the proliferation of SK-N-BE cells forced to express NLRR1 in the presence of U0126; and C denotes the proliferation of control cells.

[11] = test system: phosphorylation of EGFR and ERK; test: Western blotting of EGFR and ERK phosphorylation in MCF-7 cells forced to express NLRR1; format: cell-based; settings: MCF-7 cells forced to express NLRR1, 10 mM cyclodextrin 30 minutes 37° C., then EGF three minutes
Description: The effect of NLRR1 on EGF signal transduction in cells treated with cyclodextrin (methyl-β-cyclodextrin, mβCD) that inhibits lipid raft was examined. FIG. 39 is a photograph showing a result of an immunoblot. […] The cells were washed with the medium, and cultured for three minutes in a medium containing EGF with different concentrations. Then, the phosphorylation of EGFR and ERK was analyzed by Western blotting. With the expression of NLRR1, the enhancement of phosphorylation of EGFR and ERK by EGF was detected. […] From the result, it has been clarified that the enhancement of an EGF signal by NLRR1 needs the structure of lipid raft. Thus, it is thought that treatment of cancer using the combination of an antibody inhibiting NLRR1 and an inhibitor of lipid raft is effective.

Row | Molecule | expression induction of MYCN protein by the expression of NLRR1 (immunoblot) [7] | proliferation of cells (MTT assay) [8] | expression increase of MYCN by the induction of EGF (immunoblot) [9] | further results
1 | siRNA against NLRR1: annealed RNA fragments of SEQ ID NOs: 3 and 4, suppresses the expression of NLRR1 (chain 1 UCUUGGUUGAGCUGUGUAGUU; chain 2 AACUACACAGCUCAACCAAGA; RNA, backbone not given here; listed as Homo sapiens) | – | – | – | induction of the expression of MYCN by EGF treatment (immunoblot) [1]: the induction of the expression of MYCN by EGF treatment was suppressed; proliferation of cells (MTT assay) [2]: the proliferation of cells is suppressed; expression of NLRR1 (immunoblot) [3]: the expression of NLRR1 was suppressed; apoptosis (proportion of sub-G1 cells) [4]: the increase in the apoptosis was observed; proliferation of cells due to increased MYCN expression (MTT assay) [5]: the proliferation of cells due to the increase in the MYCN expression did not occur; EGF-induced cell proliferation (MTT assay, fold ratio with vs without EGF) [6]: EGF-induced cell proliferation was remarkably suppressed
2 | COc1cc2ncnc(Nc3cccc(Cl)c3)c2cc1OC [AG1478] | expression induction of MYCN protein by the expression of NLRR1 is suppressed | the proliferation of cells is suppressed | expression increase of MYCN by the induction of EGF was inhibited | –
3 | N#CC(=C(/N)Sc1ccccc1N)/C(C#N)=C(\N)Sc1ccccc1N [U0126] | expression induction of MYCN protein by the expression of NLRR1 is suppressed | – | expression increase of MYCN by the induction of EGF was inhibited | proliferation of cells (MTT assay) [10]: the cell proliferation was suppressed
4 | C[S+]([O-])c1ccc(-c2nc(-c3ccncc3)c(-c3ccc(F)cc3)[nH]2)cc1 (stereo not shown) [SB203580] | – | – | expression increase of MYCN by the induction of EGF was not inhibited | –
5 | methyl-β-cyclodextrin [mβCD] | – | – | – | enhancement of phosphorylation of EGFR and ERK by NLRR1 [11]: the enhancement of phosphorylation of EGFR and ERK by NLRR1 was not observed
6 | COC(=O)[C@H](CCSC)NC(=O)c1ccc(NC[C@@H](N)CS)cc1-c1ccccc1 [FTI277] | – | the proliferation of cells is suppressed | expression increase of MYCN by the induction of EGF was inhibited | –
